Measured values as given in US11155546B2, “4,6,7-trisubstituted 1,2-dihydropyrrolo[3,4-c]pyridin/pyrimidin-3-one derivatives and uses thereof” (SHANGHAI HAIYAN PHARMACEUTICAL TECHNOLOGY CO., LTD., priority 2017, dated 2021).

How the values were obtained:
βBTK Y223 = βBTK Y223 (Homo sapiens (Human), UniProt Q06187); assay: Intracellular βBTK Y223 phosphorylation HTRF in Ramos cells; assay type: cell-based
Method: The compound was predissolved in 100% DMSO. […] 20 μl of lysate (4× lysate: blocked mother liquor is 25:1) was added to each well and incubated for 30 minutes at 25° C. on a shaker. It was shaken on an oscillator at 800 rpm for 1 minute. […] The half-inhibitory concentration IC50 was calculated by fitting with XLFIT 5.0 software (IDBS, UK).

BTK WT = BTK WT (Homo sapiens (Human), UniProt Q06187); assay: Lantha screening kinase reaction, inhibition of BTK WT; assay type: biochemical
Method: The compound was predissolved in 100% DMSO. 10 mM drug stock solution was obtained by dissolution at room temperature and then serially diluted with 8 vol % DMSO solution to a final concentration of 10-0.005 μM. […] Among the wells, the kinase in the blank well was replaced with a reaction buffer and the kinase well (Enzyme) was not added with any drug. After shaking at 25° C. for 60 minutes in the dark, 10 μl of Detection Solution (mixture of Invitrogen PV3528 and EDTA, which was diluted with TR-FRET dilution buffer, the working concentration of EDTA was 5 mM, the working concentration of Lanthascreening Tb PY20 antibody was 0.2 nM) was added and shaken at room temperature for 30 minutes. The plates were read on a VictorX5 fluorescent plate reader (PerkinElmer) and the light absorption at an excitation wavelength of 340 nm and emission wavelengths of 500 nm and 520 nm was measured.
The calculation method for the inhibition ratio (referring to the specification of Invitrogen, PV3363) was as follows: Emission ratio (ER):Coumarin Emission (520 nm)/Fluorescein Emission (500 nm) 1. The inhibition ratio (IR):(ERkinase−ERtest compound)/(ERkinase−ERblank)×100%. 2.
The half-inhibitory concentration IC50 was calculated by fitting with XLFIT5.0 software (IDBS, UK).

wild-type EGFR kinase = wild-type EGFR kinase (Homo sapiens (Human), UniProt P00533); assay: Wild type EGFR kinase inhibition test (z-lyte); assay type: biochemical; conditions: 10 μM ATP; read-out: EGFR WT IC50
Source text: All the following reagents used in z-lyte test are commercially available from Invitrogen.
The calculation method for the inhibition ratio (referring to the specification of Invitrogen, PV3363) was as follows: ER=Coumarin Emission(450 nm)/Fluorescein Emission(520 nm) 1. Phosphorylation ratio=(1−((ER×C3520nm−C3450nm)/((C1450nm−C3450nm)+ER×(C3520nm−C1520nm))))×100% 2. Inhibition ratio (IR)=(1−phosphorylation ratio of the test compound)/(phosphorylation ratio of C2))×100% 3.
The half-inhibitory concentration IC50 was calculated by fitting with XLFIT 5.0 software (IDBS, UK).

in vivo = assay: in vivo
Method: Test Animals: ICR mice, weight 28-30 g, male, totally 12, purchased from SLAC Laboratory Animal Co., Ltd. Mice were fasting one night before administration and freely fed 4 hours after administration.
Administration and Blood collection: 6 mice were administered intragastrically (PO) in a administered dosage of 30 mg/kg and a administered volume of 10 mL/kg. One administration route was subjected with 6 mice, blood samples of three mice were collected at one time point, and blood samples of another three mice were collected at alternate time point alternately. Blood was collected at 8 time points of 0.083, 0.25, 0.5, 1, 2, 4, 8, 24 h after administration respectively.
Animals were manually controlled at the time of collection and approximately 80 μL of blood was collected from the mice fundus venous plexus into a tube containing K2EDTA. The collected blood sample was put on wet ice, centrifuged within 15 min (8000 rpm, 4 min at 4° C.), and then the plasma sample was taken and stored at minus 20° C. till analysis. The compounds were prepared on the day of the experiment.
Solvent excipient information: DMSO (brand: Sigma, batch number: SHBD2446V); 2-hydroxypropyl-3-cyclodextrin (brand: Sigma, batch number: BCBN8227V), acetic acid (brand: Sinopharm Group, batch number: 20150616), sodium acetate (Brand: GENERAL-REAGENT, batch number: P1246037).
Preparation of a 3 mg/mL PO dosing solution: the solvent was a solution of 5% DMSO and 95% PH4.5 (sodium acetate-acetate) in 20% of 2-hydroxypropyl-β-cyclodextrin.
Analytical method: Plasma samples were analyzed by liquid chromatography-tandem mass spectrometry (Instrument type: Triple Quad™ 4000).
Preparation of the standard curve: preparing a standard curve of the test compound 1n the plasma matrix of ICR mice with a linear range of 1.00-3000 ng/mL, and preparing control samples at low, medium and high concentrations of 3 ng/mL, 500 ng/mL, and 2400 ng/mL respectively.
Treatment of biological samples: the frozen plasma samples were thawed on ice, and after the samples were thawed, they were vortexed on a vortex for 5 min. 20 μL of plasma sample was added to a 96-well plate, and 200 μL of acetonitrile (brand: Merck, Lot: 1854029643) containing an internal standard dexamethasone (Brand: NIFDC, Lot: 1N2V-DPGY, 2000 ng/mL) was added to precipitate protein, which were vortexed for 5 min, and then centrifuged at 3700 rpm and 4° C. for 15 min. The supernatant was extracted and twice centrifuged under the same conditions, and finally 2 μL of the supernatant solution was analyzed by LC-MS/MS.

[1] = male, ICR, mouse, in vivo, po, 30 mg/kg

BTK WT, sequence (Q06187 whole entry): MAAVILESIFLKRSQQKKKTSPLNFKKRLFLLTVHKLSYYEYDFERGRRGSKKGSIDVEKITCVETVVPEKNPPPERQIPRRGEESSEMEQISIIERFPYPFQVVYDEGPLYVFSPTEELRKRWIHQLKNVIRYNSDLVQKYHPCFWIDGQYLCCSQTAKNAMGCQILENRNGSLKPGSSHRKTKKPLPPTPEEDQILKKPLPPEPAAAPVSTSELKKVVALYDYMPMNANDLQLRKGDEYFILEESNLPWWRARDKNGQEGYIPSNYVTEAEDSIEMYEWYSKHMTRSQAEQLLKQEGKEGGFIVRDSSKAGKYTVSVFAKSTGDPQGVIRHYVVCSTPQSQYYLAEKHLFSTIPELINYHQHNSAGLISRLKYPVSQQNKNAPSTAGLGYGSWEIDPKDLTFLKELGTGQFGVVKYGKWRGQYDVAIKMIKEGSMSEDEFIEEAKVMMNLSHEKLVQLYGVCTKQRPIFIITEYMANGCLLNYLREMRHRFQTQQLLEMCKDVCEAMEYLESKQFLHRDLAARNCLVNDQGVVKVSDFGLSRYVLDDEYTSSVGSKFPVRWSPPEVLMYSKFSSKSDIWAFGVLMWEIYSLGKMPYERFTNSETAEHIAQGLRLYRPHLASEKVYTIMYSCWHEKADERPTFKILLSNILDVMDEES
βBTK Y223, sequence (Q06187 whole entry): as above
wild-type EGFR kinase, sequence (P00533 25-1210): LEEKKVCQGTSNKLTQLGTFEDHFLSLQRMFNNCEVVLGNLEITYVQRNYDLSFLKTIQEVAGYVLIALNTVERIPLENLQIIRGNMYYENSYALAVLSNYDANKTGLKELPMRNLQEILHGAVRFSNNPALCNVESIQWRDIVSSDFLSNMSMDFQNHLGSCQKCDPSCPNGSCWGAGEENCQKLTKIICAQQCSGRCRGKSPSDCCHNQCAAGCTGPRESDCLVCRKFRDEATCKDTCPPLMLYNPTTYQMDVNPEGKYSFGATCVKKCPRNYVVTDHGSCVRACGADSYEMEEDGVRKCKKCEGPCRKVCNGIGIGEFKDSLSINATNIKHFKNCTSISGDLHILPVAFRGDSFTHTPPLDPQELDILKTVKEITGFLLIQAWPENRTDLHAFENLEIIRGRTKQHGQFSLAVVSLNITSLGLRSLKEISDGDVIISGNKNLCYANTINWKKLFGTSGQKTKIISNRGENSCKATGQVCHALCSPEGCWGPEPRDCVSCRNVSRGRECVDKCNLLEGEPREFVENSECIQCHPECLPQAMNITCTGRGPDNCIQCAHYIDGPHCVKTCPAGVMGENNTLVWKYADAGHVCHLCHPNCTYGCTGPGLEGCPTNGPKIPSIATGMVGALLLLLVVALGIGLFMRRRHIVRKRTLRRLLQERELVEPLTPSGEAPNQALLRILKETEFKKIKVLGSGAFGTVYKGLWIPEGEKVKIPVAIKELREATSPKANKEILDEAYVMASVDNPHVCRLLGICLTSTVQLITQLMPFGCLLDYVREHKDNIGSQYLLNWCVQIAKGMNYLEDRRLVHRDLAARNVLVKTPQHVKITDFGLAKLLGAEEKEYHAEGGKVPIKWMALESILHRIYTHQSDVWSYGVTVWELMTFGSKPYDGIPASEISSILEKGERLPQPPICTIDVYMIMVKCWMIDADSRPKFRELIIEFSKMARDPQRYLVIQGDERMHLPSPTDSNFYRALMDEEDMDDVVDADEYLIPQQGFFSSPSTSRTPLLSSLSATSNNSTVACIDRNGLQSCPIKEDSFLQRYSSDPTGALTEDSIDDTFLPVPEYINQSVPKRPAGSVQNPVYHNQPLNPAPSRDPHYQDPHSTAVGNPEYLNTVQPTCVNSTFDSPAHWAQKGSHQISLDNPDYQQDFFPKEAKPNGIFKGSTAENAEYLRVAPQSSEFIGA

Structure (SMILES)	IC50 (βBTK Y223)	IC50 (BTK WT)	IC50 (wild-type EGFR kinase)	AUC (in vivo; [1])	Cmax (in vivo; [1])	Tmax (in vivo; [1])	bioavailability (in vivo; [1])	half-life (in vivo; [1])	efficacy of the compound in mice compared with the compound without substituent on the nitrogen atom attached to the piperidine ring (in vivo; ICR mice, PO 30 mg/kg, pairs G-7/G-60, G-14/G-71, G-23/G-72)	Area under curve AUC (in vivo; mouse, in vivo, po, 30 mg/kg)	Maximum blood concentration Cmax (in vivo; mouse, in vivo, po, 30 mg/kg)	Oral relative bioavailability F (%) (in vivo; mouse, in vivo, po, 30 mg/kg)	Tmax (in vivo; mouse, in vivo, po, 30 mg/kg)	half-time T1/2 (in vivo; mouse, in vivo, po, 30 mg/kg)	efficacy of the compound in mice compared with the compound without substituent on the nitrogen atom attached to the piperidine ring (in vivo; mouse, in vivo, po, 30 mg/kg)
C=CC(=O)N1CC(Nc2nc(-c3cnn(C)c3)c3c(c2F)CNC3=O)CCC1C (stereo not drawn) [Compound G-26, 6-(1-acryloyl-6-methylpiperidin-3-ylamino)-7-fluoro-4-(1-methyl-1H-pyrazole-4-yl)-1H-pyrrolo[3,4-c]pyridine-3(2H)-one]	47 nM	27 nM	6690 nM	1290 ng·h/mL	2400 ng/mL	4.8 min	13.1%	127 min							
C=CC(=O)N1CCCC(N(C)c2nc(-c3cnn(C)c3)c3c(c2F)CNC3=O)C1 (stereo not drawn) [Compound G-60, 6-((1-acryloylpiperidin-3-yl)(methyl)amino)-7-fluoro-4-(1-methyl-1H-pyrazole-4-yl)-1H-pyrrolo[3.4-c]pyridine-3 (2H)-one]	24 nM	9 nM	> 10000 nM						significantly lower	109 ng·h/mL	351.7 ng/mL	3%	4.8 min	634.2 min	
C=CC(=O)N1CCCC(N(C)c2nc(Nc3ccc(N4CCOCC4)cc3)c3c(c2F)CNC3=O)C1 (stereo not drawn) [Compound G-71, 6-((1-acryloylpiperidin-3-yl)(methyl)amino)-7-fluoro-4-(4-morpholin)-1H-pyrrolo[3,4-c]pyridine-3 (2H)-one]	3 nM	5 nM	1590 nM	606 ng·h/mL	533 ng/mL	4.8 min	7.4%	679 min							significantly lower
C=CC(=O)N1CCCC(Nc2nc(Nc3ccc(N4CCOCC4)c(Cl)c3)c3c(c2F)CNC3=O)C1 (stereo not drawn) [Compound G-39]	3 nM	2 nM	6310 nM							1182 ng·h/mL	1501.0 ng/mL	15.2%	4.8 min	138 min	
C=CC(=O)N1CCCC(Nc2nc(Nc3ccc(N4CCOCC4)cc3)c3c(c2F)CNC3=O)C1 (stereo not drawn) [Compound G-14]	3 nM	3 nM	4130 nM							1072 ng·h/mL	1240.0 ng/mL	13.7%	4.8 min	148 min	
C=CC(=O)N1CCCC(Nc2nc(-c3cnn(C)c3)c3c(c2F)CNC3=O)C1 (stereo not drawn) [Compound G-7, 6-(1-acryloylpiperidin-3-ylamino)-7-fluoro-4-(1-methyl-1H-pyrazole-4-yl)-1H-pyrrolo[3,4-c]pyridine-3(2H)-one]	11 nM	35 nM	3950 nM	1330 ng·h/mL	1830 ng/mL	4.8 min	25.4%	93 min							
C=CC(=O)N1CCCC(N(C)c2nc(Nc3cc(C)ns3)c3c(c2F)CNC3=O)C1 (stereo not drawn) [Compound G-72, 6-((1-acryloylpiperidin-3-yl)(methyl)amino)-7-fluoro-4-(3-methylisothiazole-5-ylamino)-1H-pyrrolo[3,4-c]pyridine-3(2H)-one]	4 nM	5 nM	1660 nM	107 ng·h/mL	10.7 ng/mL	15 min		679 min							significantly lower
C=CC(=O)N1CCCC(Nc2nc(Nc3ccc(N4CCOCC4)cc3F)c3c(c2F)CNC3=O)C1 (stereo not drawn) [Compound G-31]	11 nM	7 nM	7930 nM							1839 ng·h/mL	1237.0 ng/mL	28.2%	15 min	103 min	
C=CC(=O)N1CC(Nc2nc(Nc3ccc(OCCOC)cc3)c3c(c2F)CNC3=O)C1 [Compound G-5]	59 nM	48 nM	1910 nM												
C=CC(=O)N1CCCCC(Nc2nc(Nc3ccc(N4CCOCC4)cc3)c3c(c2F)CNC3=O)C1 (stereo not drawn) [Compound G-27]	11 nM	5 nM	3690 nM												
C=CC(=O)N1CCCC(Nc2nc(Nc3cnn(C)c3)c3c(c2F)CNC3=O)C1 (stereo not drawn) [Compound G-25]	2 nM	2 nM	1090 nM												
C=CC(=O)N1CC(Nc2nc(Nc3ccc(N4CCOCC4)cc3)c3c(c2F)CNC3=O)CCC1C (stereo not drawn) [Compound G-28]	10 nM	5 nM	2300 nM												
C=CC(=O)N1CCCC(Nc2nc(Nc3cnn(C4CCOCC4)c3)c3c(c2F)CNC3=O)C1 (stereo not drawn) [Compound G-10]	7 nM	3 nM	1740 nM												
C=CC(=O)N1CCCC(Nc2nc(Nc3ccc(N4CCOCC4=O)cc3)c3c(c2F)CNC3=O)C1 (stereo not drawn) [Compound G-17]	16 nM	2 nM	1500 nM												
C=CC(=O)N1CCCC(Nc2nc(Nc3ccc(OCCOC)cc3)c3c(c2F)CNC3=O)C1 (stereo not drawn) [Compound G-2, 6-(1-acryloylpiperidin-3-ylamino)-7-fluoro-4-(4-(2-methoxyethoxy)phenylamino)-1H-pyrrolo[3,4-c]pyridine-3 (2H)-one]	5 nM	3 nM	1620 nM												
C=CC(=O)N1CCCC(Nc2nc(Nc3ccc(N4CCN(C)CC4)cc3)c3c(c2F)CNC3=O)C1 (stereo not drawn) [Compound G-11]	2 nM	1 nM	4250 nM												
